Data published in ChEMBL document CHEMBL1148729, “Specific plant terpenoids and lignoids possess potent antiviral activities against severe acute respiratory syndrome coronavirus” (J Med Chem, 2007).

Columns and labels:
[1] = system: SARS-CoV; test: Inhibition of SARS coronavirus-induced cytopathogenicity in Vero E6 cells at 20 uM; assay type: functional; settings: Severe acute respiratory syndrome-related coronavirus
[2] = system: SARS-CoV; test: Inhibition of SARS coronavirus-induced cytopathogenicity in Vero E6 cells at 10 uM; assay type: functional; settings: Severe acute respiratory syndrome-related coronavirus
[3] = system: SARS-CoV; test: Antiviral activity against SARS coronavirus in Vero E6 cells assessed as inhibition of viral replication by ELISA; assay type: functional, organism-based; settings: Severe acute respiratory syndrome-related coronavirus
[4] = Selectivity index, Ratio of CC50 for Vero E6 cells to EC50 for SARS coronavirus; assay type: functional
[5] = system: SARS-CoV; test: Inhibition of SARS virus-induced cytopathogenicity in Vero E6 cells at 3.3 uM; assay type: functional; settings: Severe acute respiratory syndrome-related coronavirus
[6] = Cytotoxicity against Vero E6 cells by MTT assay; assay type: cell-based; settings: chlorocebus sabaeus
[7] = system: SARS-CoV; test: Inhibition of SARS virus-induced cytopathogenicity in Vero E6 cells at 1 uM; assay type: functional; settings: Severe acute respiratory syndrome-related coronavirus
[8] = target: Replicase polyprotein 1a (Severe acute respiratory syndrome-related coronavirus, UniProt P0C6U8); test: Inhibition of SARS coronavirus 3CL protease

SMILES	inhibition at 20 µM [1] [%]	inhibition at 10 µM [2] [%]	EC50 [3] [µM]	Ratio CC50/EC50 [4]	inhibition at 3.3 µM [5] [%]	CC50 [6] [µM]	inhibition at 1 µM [7] [%]	IC50 [8] [µM]	Ki [8] [µM]
COc1cc(C2c3cc(OC(=O)c4ccccc4)c(OC)cc3C[C@@H](CO)[C@@H]2CO)ccc1OC(=O)c1ccccc1 (stereo not given in full)	< 25	< 25							
CC(=O)Oc1cc2c(cc1C(C)C)C=C[C@H]1C(C)(C)[C@@H](OC(C)=O)CC[C@]21C	< 25	25	1.57	193	25	303			
CC(C)C1=C(O)C(=O)C2=C(C=C[C@H]3C(C)(C)CCC[C@]23C)C1=O	< 25	25	5.55	16.2		89.7			
CC(C)C1=C[C@]2(O)CC[C@H]3C(C)(C)CCC[C@]3(C)C2=CC1=O	< 25	< 25	1.47	>510	50	> 750			
COc1c(C(C)C)cc2c(c1O)[C@@]1(C)CCCC(C)(C)[C@@H]1C[C@@H]2O	< 25	< 25	1.15	111		127			
C[C@@H]1CC[C@H]2[C@@](C)(CO)[C@H]3C[C@@]12CC[C@@]3(C)O	< 25	25	> 10		50	> 750			
CC(C)c1ccc2c(c1)C(=O)C[C@H]1C(C)(C)CCC[C@]21C	< 25	< 25	4	76.3		305			
CC1=C[C@@H]2[C@@H](CC1)[C@](C)(O)CC[C@H]2C(C)C	< 25	25	4.44	17.3	25	76.8	50		
C=C(C)[C@@H]1CC[C@]2(C(=O)O)CC[C@]3(C)[C@H](CC[C@@H]4[C@@]5(C)CC[C@H](O)C(C)(C)[C@@H]5CC[C@]43C)[C@@H]12 [BETULINIC ACID]	< 25	25	> 10	<15	50	150		10	8.2
C=C(C)[C@@H]1CC[C@]2(C(=O)O)CC[C@]3(C)[C@H](CC[C@@H]4[C@@]5(C)CCC(=O)C(C)(C)[C@@H]5CC[C@]43C)[C@@H]12 [BETUNOLIC ACID]	< 25	< 25	0.63	180		112		> 100	
C=C[C@@]1(C)CC(=O)[C@]2(O)[C@@]3(C)[C@@H](O)CCC(C)(C)[C@@H]3[C@H](O)[C@H](OC(C)=O)[C@@]2(C)O1 [COLFORSIN]	< 25	25	7.5	89.8	50	674			
COc1c(C(C)C)cc2c(c1O)[C@@]1(C)CCCC(C)(C)[C@@H]1CC2=O [CRYPTOJAPONOL]	< 25	< 25	> 10	<7.9		78.5			
COc1cc(/C=C/C(=O)CC(=O)/C=C/c2ccc(O)c(OC)c2)ccc1O [CURCUMIN]	25	50	> 10			> 250		40	
CC(C)c1cc2c(cc1O)[C@@]1(C)CCCC(C)(C)[C@@H]1CC2 [FERRUGINOL]	< 25	< 25	1.39	58	25	80.4			
O=C1OC[C@H](Cc2ccc3c(c2)OCO3)[C@H]1Cc1ccc2c(c1)OCO2 [HINOKININ]	< 25	25	> 10		25	> 750	50	> 100	
C=CCc1ccc(O)c(-c2ccc(O)c(CC=C)c2)c1 [HONOKIOL]	< 25	< 25	6.5	13.7	25	88.9			
C=CCc1ccc(O)c(-c2cc(CC=C)ccc2O)c1 [MAGNOLOL]	< 25	< 25	3.8	18	50	68.3			
O=C(Nc1ccc([N+](=O)[O-])cc1Cl)c1cc(Cl)ccc1O [NICLOSAMIDE]	< 25	25	< 0.1	>221	25	22.1	50	40	
C=C1CC[C@@H]2[C@](C)(CCC[C@]2(C)C(=O)O)[C@H]1CCC1=CCOC1=O [PINUSOLIDIC ACID]	< 25	< 25	4.71	>159		> 750			
O=C1OC[C@H](Cc2ccc3c(c2)OCO3)/C1=C\c1ccc2c(c1)OCO2 [SAVININ]	< 25	< 25	1.13	>667		> 750		25	9.1
CC(C)c1cc2c(cc1O)[C@@]1(C)CCCC(C)(C)[C@@H]1CC2=O [SUGIOL]	< 25	< 25							
CC(C)[C@@H]1NC(=O)[C@H](C)OC(=O)[C@@H](C(C)C)NC(=O)[C@@H](C(C)C)OC(=O)[C@H](C(C)C)NC(=O)[C@H](C)OC(=O)[C@@H](C(C)C)NC(=O)[C@@H](C(C)C)OC(=O)[C@H](C(C)C)NC(=O)[C@H](C)OC(=O)[C@@H](C(C)C)NC(=O)[C@@H](C(C)C)OC1=O [VALINOMYCIN]	< 25	25	1.63	41.4	25	67.5	50		
